# Test results from US20240336593A1, “Compound Having Antitumor Activity And Use Thereof” (lnnovStoneTherapeutics Limited, priority 2020, published 2024).
# pIC50: −log10 of the molar value.
# Target: PRMT5 (Homo sapiens (Human), UniProt O14744)
# Experiment: Inhibitory activity against PRMT5 enzyme by radioisotopic method
# Assay type: biochemical
# Conditions: PRMT5 5 nM, [3H]-SAM 0.3 μM, polypeptide substrate GL-27 100 nM, room temperature
# Procedure, shortened: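 PRMT5 (5 nM) preincubated with compound and [3H]-SAM (0.3 μM) 60 min at RT in Tris pH 8.0/Tween-20/DTT, 1% DMSO; biotinylated GL-27 peptide (100 nM) added, 120 min RT, stopped with cold SAM. Peptide captured on streptavidin FlashPlate, CPM counted; IC50 from four-parameter fit of % inhibition.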
# Sequence of PRMT5 (O14744 whole entry): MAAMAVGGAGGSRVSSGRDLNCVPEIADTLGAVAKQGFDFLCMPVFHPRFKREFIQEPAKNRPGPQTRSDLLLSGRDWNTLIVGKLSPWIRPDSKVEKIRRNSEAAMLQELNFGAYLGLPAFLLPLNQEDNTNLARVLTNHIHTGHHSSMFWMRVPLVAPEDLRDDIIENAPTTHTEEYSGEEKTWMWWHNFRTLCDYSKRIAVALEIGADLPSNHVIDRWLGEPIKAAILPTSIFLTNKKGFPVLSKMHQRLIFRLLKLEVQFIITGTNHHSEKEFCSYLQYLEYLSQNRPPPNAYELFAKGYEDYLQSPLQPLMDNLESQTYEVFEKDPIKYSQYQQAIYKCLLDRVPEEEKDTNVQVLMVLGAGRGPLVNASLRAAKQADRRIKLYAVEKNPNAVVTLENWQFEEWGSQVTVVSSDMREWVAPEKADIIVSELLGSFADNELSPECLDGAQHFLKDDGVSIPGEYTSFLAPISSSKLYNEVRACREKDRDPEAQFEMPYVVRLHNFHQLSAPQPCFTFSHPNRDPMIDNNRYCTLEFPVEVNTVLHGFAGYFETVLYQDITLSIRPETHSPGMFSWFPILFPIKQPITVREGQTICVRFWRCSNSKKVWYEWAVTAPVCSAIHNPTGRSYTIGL
# Sequence of PRMT5 (Q9BQA1 whole entry partner): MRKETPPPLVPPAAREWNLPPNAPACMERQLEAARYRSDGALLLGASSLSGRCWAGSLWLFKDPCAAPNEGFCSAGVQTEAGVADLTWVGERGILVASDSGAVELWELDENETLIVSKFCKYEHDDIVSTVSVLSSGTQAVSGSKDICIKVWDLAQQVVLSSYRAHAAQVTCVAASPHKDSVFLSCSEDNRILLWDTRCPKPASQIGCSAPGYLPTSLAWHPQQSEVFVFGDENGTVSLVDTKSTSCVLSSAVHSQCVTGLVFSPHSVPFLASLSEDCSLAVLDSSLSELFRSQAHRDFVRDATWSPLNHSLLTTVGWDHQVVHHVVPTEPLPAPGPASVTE
row,pIC50,Compound
1,> 7.00,"O[C@H]1CN(c2cc(Nc3ccccc3N3CCOCC3)ncn2)CC[C@@H]1N1CCc2ccccc2C1 (relative stereo) [Example 50, trans-4-(3,4-dihydroisoquinolin-2(1H)-yl)-1-(6-((2-morpholinylphenyl)-amino)pyrimidin-4-yl)piperidin-3-ol]"
2,> 7.00,O=C(c1cc(NC2CCN(CC(F)(F)F)CC2)ncn1)N1CC[C@H](O)[C@@H](N2CCc3ccccc3C2)CC1 [Example 127]
3,> 7.00,"COCC(=O)N1CCC(Nc2cc(C(=O)N3CC[C@H](N4CCc5ccccc5C4)[C@@H](O)C3)ncn2)CC1 (relative stereo) [Example 113, 1-(4-((6-(trans-4-(3,4-dihydroisoquinolin-2(1H)-yl)-3-hydroxypiperidine-1-carbonyl)pyrimidin-4-yl)amino)piperidin-1-yl)-2-methoxyethan-1-one]"
4,> 7.00,O=C(c1cc(Nc2ccccc2)ncn1)N1CC[C@H](N2CCc3ccccc3C2)[C@@H](O)C1 [Example 101]
5,> 7.00,"O=C(C(=O)N1CCC2(CC1)CC(Nc1cc(C(=O)N3CC[C@H](N4CCc5ccccc5C4)[C@@H](O)C3)ncn1)C2)C1CC1 (relative stereo) [Example 98, 1-cyclopropyl-2-(2-((6-(trans-4-(3,4-dihydroisoquinolin-2(1H)-yl)-3-hydroxypiperidine-1-carbonyl)pyrimidin-4-yl)amino)-7-azaspiro[3.5]nonan-7-yl)ethane-1,2-dione]"
6,> 7.00,"CC(C)(C)c1ccc(Nc2cc(N3CC[C@H](N4CCc5ccccc5C4)[C@@H](O)C3)ncn2)cc1 (relative stereo) [Example 39, trans-1-(6-((4-t-butylphenyl)amino)pyrimidin-4-yl)-4-(3,4-dihydroisoquinolin-2(1H)-yl)piperidin-3-ol]"

# Test system: Xenograft models of small cell lung cancer (SCLC), non-small cell lung cancer (NSCLC), acute myeloid leukemia (AML) and non-Hodgkin's lymphoma
# Experiment: not given
# Conditions: cited from earlier work
row,Compound,tumor growth inhibited
1,Nc1nc2cc(CC[C@H]3C[C@@H](n4ccc5c(N)ncnc54)[C@H](O)[C@@H]3O)ccc2cc1Br [JNJ-64619178],up to 99%
